Assay results as given in ChEMBL document CHEMBL1156829 (Proc Natl Acad Sci U S A, 2008).
Where “and” joins values, the source holds several entries; their conditions need not be identical. Equal values may be shown once.

Columns and labels:
[1] = NOVARTIS: Cytotoxicity against human hepatocellular carcinoma cell line (Huh7); assay type: toxicity, cell-based, Huh-7; conditions: Huh7 cells (hepatocellular carcinoma cell line)
[2] = test system: Plasmodium falciparum; test: NOVARTIS: Inhibition of Plasmodium falciparum W2 (drug-resistant) proliferation in erythrocyte-based infection assay; assay type: functional, organism-based; conditions: read-out: EC50
[3] = test system: Plasmodium falciparum; test: NOVARTIS: Inhibition of Plasmodium falciparum 3D7 (drug-susceptible) proliferation in erythrocyte-based infection assay; assay type: functional, organism-based

| SMILES | CC50 [1] [nM] | EC50 ([2]; Plasmodium falciparum, W2) [nM] | EC50 ([3]; Plasmodium falciparum, 3D7) [nM] | EC50 [2] | EC50 [3] |
| --- | --- | --- | --- | --- | --- |
| CCCOC(=O)C1=C(C)NC2=C(C(=O)CC(c3ccc(OC)c(OC)c3)C2)C1c1ccccc1Cl (stereo not drawn) | > 100000 | 44.8 | 66.2 |  |  |
| Clc1cccc(-c2cn3ccnc3c(N3CCN(c4ccncc4)CC3)n2)c1 | > 10000 | > 52.6 | > 1250 |  |  |
| CCN1C(=O)N(CCC(C)C)C2(CCN(Cc3cc(Cl)ccc3O)CC2)C1=O | > 100000 | 102 | 348 |  |  |
| CN1CCN=C1c1ccc(NC(=O)Nc2ccc(NC(=O)Nc3ccc(C4=NCCN4C)cc3)cc2)cc1 | > 10000 | 124 | 158 |  |  |
| COc1ccc(NC(=O)Cn2c(C)c(C=O)c3ccccc32)cc1 | > 100000 | 1770 | 1450 |  |  |
| O=C1CC(c2ccccc2)Oc2ccc(F)cc21 (stereo not drawn) | > 10000 | > 734 | > 1250 |  |  |
| OC1=C2C(=Nc3ccccc3SC2c2cccs2)c2ccccc21 (stereo not drawn) | 49500 | < 2.47 | 42.8 |  |  |
| CC(C)C1=Nc2cc(C(N)=O)ccc2CN1C1CC1 | > 10000 | > 338 | 30.8 |  |  |
| CCCCNC(=O)NC(Cc1c[nH]c2ccccc12)C(=O)NC1CCCCC1 (stereo not drawn) | > 2020 | > 28.3 | > 1250 |  |  |
| CCc1ccc(NC(=O)COC(=O)c2cccs2)cc1 | > 100000 | 1110 | 4640 |  |  |
| C=C(C)[C@@]12O[C@@H]1[C@@]1(C)C(=CC2=O)CC[C@@H](O)[C@@H]1C | > 10000 | 586 | 787 |  |  |
| c1ccc(C[n+]2ccc(-c3nc4ccccc4s3)cc2)cc1 | > 100000 | 1480 | 1850 |  |  |
| CCOC(=O)C1=C(C)N=c2sc(=Cc3cc(Br)ccc3O)c(=O)n2C1c1ccccc1 (stereo not drawn) | > 100000 | 1400 | 5530 |  |  |
| c1ccc(-c2cc(NCc3ccco3)nc(-c3ccccn3)n2)nc1 | > 10000 | 91.4 | 182 |  |  |
| COC(=O)c1ccc(NC(=O)CSc2nc3cc4c(cc3cc2C#N)OCCO4)cc1 | > 10000 | 1540 | 1610 |  |  |
| CCOC(=O)c1cnn(-c2ccnc3cc(Cl)ccc23)c1CNC(C)c1ccco1 (stereo not drawn) | 38900 | 448 | 795 |  |  |
| CCOC(=O)c1cnc2ccc(Cl)cc2c1Nc1ccc(OC)c(OC)c1 | > 100000 | 4430 | 2670 |  |  |
| CC(=O)N(C1=C(N2CCC(C)CC2)C(=O)c2ccccc2C1=O)c1cccc(F)c1 | 66400 | 233 | 241 |  |  |
| Cc1ccc(C)n1-c1ccc(C(=O)N2CCC(C)CC2)cc1 | > 100000 | 2040 | 5120 |  |  |
| CC(=O)N1CCNC1=Nc1c(Cl)nc(C)nc1Cl | > 10000 | 498 | 444 |  |  |
| CC1=NOC(=O)/C1=C\c1cccs1 | > 10000 | > 1240 | > 1250 |  |  |
| CCC(C)NC(=O)c1cc(NC(=O)c2cccc(Cl)c2)ccc1N1CCCCC1 (stereo not drawn) | 15400 | 194 | > 1610 |  |  |
| Oc1ccc(-c2ccccc2)cc1CNCCc1ccc(F)cc1 | > 10000 | < 9.74 | 691 |  |  |
| COc1ccc(C2N=C(N)N=C(N)N2c2ccc(C)cc2)cc1 (stereo not drawn) | > 10000 | > 1640 | 73.8 |  |  |
| C=CC1CN2CCC1CC2[C@H](c1ccnc2ccccc12)S(=O)(=O)O (stereo partly drawn) | > 10000 | 97.1 | 152 |  |  |
| CC(C)CC(=O)Nc1nnc(-c2ccc(Br)cc2)s1 | > 100000 | 2330 | > 9040 |  |  |

| SMILES | CC50 [1] [nM] | EC50 ([2]; Plasmodium falciparum, W2) [nM] | EC50 ([3]; Plasmodium falciparum, 3D7) [nM] | EC50 [2] | EC50 [3] |
| --- | --- | --- | --- | --- | --- |
| CCOc1ccc(S(=O)(=O)N=C2C=C(Nc3ccc(O)cc3)C(=O)c3ccccc32)cc1 | 7050 | 135 | 158 |  |  |
| COc1cc(NC(=O)C=Cc2ccccc2Cl)cc(OC)c1OC | 47800 | 302 | 547 |  |  |
| Nc1ccc2nc(C=Cc3ccc(Cl)cc3)[nH]c2c1 | 6900 | 122 | 580 |  |  |
| COc1ccc(C2C(C(=O)Nc3cccc(Cl)c3)c3ccccc3C(=O)N2C2CCCCC2)cc1 (stereo not drawn) | > 100000 | 930 | 1550 |  |  |
| Cn1nc(C(=O)Nc2ccc(F)c(Cl)c2)c2c1-c1ccccc1S(=O)(=O)C2 | > 100000 | 3610 | > 12500 |  |  |
| CCOC(=O)C1=C(C)NC2=C(C(=O)C(C(=O)OCC)C(c3cccc(OC)c3)C2)C1c1ccc(OC)c(OC)c1 (stereo not drawn) | > 100000 | 167 | 376 |  |  |
| COc1ccc(OC)c(-c2ccc(O)c(CNCCc3cccc(F)c3)c2)c1 | > 10000 | 106 | 675 |  |  |
| CN(C)c1ccc(/C=C2\SC(=Nc3ccc(F)cc3)NC2=O)cc1 | > 10000 | 493 | 361 |  |  |
| CCOC(=O)c1cn(CC)c2cc(N3CCCCC3)c(F)cc2c1=O | > 100000 | 336 | 166 |  |  |
| Oc1c(C(Nc2ccccn2)c2cccc(Oc3ccccc3)c2)ccc2cccnc12 (stereo not drawn) | 62800 | 320 | 328 |  |  |
| CCCCCN1/C(=C\C=C\c2n(CCCCC)c3cc(Cl)c(Cl)cc3[n+]2CC)N(CC)c2cc(Cl)c(Cl)cc21 | > 10000 | > 1060 | > 1300 |  |  |
| COC(=O)c1ccc(C2C3=C(O)CC(c4ccc(C)cc4)CC3=Nc3ccccc3N2C(=O)c2cccs2)cc1 (stereo not drawn) | > 100000 |  |  | 808 nM and 264 nM | 328 nM and 88 nM |
| CC(=O)N(Cc1ccc(F)cc1)C1=C(NCc2ccccc2)C(=O)c2ccccc2C1=O | > 10000 | 679 | 680 |  |  |
| CC(C)NC(=O)N1CCN(C(=O)C(Cc2c[nH]c3ccccc23)NC(=O)Nc2cccc(Cl)c2Cl)CC1C (stereo not drawn) | 57700 | 43.9 | 27.2 |  |  |
| COC(=O)c1c(S(=O)(=O)NCCN(C)C)sc2c1CCN(CC(C)c1ccccc1)C2 (stereo not drawn) | > 10000 | > 1320 | 1610 |  |  |
| CN(C)CCCNc1cc(-c2ccccc2)nc2ccccc12 | 18600 | 5150 | 123 |  |  |
| CCCCN1Cc2ccc(C(N)=O)cc2N=C1C1CC1 | > 11400 | 212 | 62 |  |  |
| Cn1nc(-c2ccccc2)c2c(C(=O)C(F)(F)F)cc(C(=O)C(F)(F)F)c-2c1-c1ccccc1 | > 100000 | 2330 | 8230 |  |  |
| COc1cc(NC(C)CCCN(Cc2ccccc2OC)C(=O)C(Cl)Cl)c2ncccc2c1 (stereo not drawn) | > 10000 | 554 | > 1500 |  |  |
| Cc1ccc(Nc2nc(NN=Cc3ccc(-c4ccc([N+](=O)[O-])cc4)o3)nc(Nc3ccccc3)n2)c(C)c1 | > 10000 | 387 | > 824 |  |  |
| O=C1NN(c2ccc(Br)cc2)C(=O)C1=Cc1c(O)ccc2ccccc12 | > 100000 | 818 | 4880 |  |  |
| CCC(=O)N(C)CCCNc1ccnc2cc(Cl)ccc12 | > 100000 | 341 | 467 |  |  |
| COc1ccc(CN2CCC(C(=O)Nc3ccc(Oc4cccnc4)cc3)CC2)cc1 | 59400 | 640 | 2220 |  |  |
| CC(C)CCNCC(O)Cn1c2ccc(Br)cc2c2cc(Br)ccc21 (stereo not drawn) | 19000 | 88.5 | 270 |  |  |
| Cc1ccc(NC(=O)c2ccc(NCCCN3CC(C)CC(C)C3)c([N+](=O)[O-])c2)cc1F (stereo not drawn) | > 53600 | 736 | 219 |  |  |
